Assay: Comparison of storage stability of suspension concentrates (CIPAC MT 46.3)
Format: physicochemical
Method: Samples prepared in Examples 4 and 5 were stored at 54° C. for 1 month, 3 months and 6 months. The procedures are followed according to CIPAC MT 46.3. The concentration of spirodiclofen was measured at the end of each storage time by HPLC. The aggregation was measured by observation. The original concentration of spirodiclofen in each formulation was 25%.

Structure (SMILES) | storage stability / aggregation after prolong storage (listed as spirodiclofen in amorphous state) | storage stability / aggregation after prolong storage (listed as crystalline modification I of spirodiclofen)
CCC(C)(C)C(=O)OC1=C(c2ccc(Cl)cc2Cl)C(=O)OC12CCCCC2 [Example 1, 3-(2,4-dichlorophenyl)-2-oxo-1-oxaspiro[4.5]dec-3-en-4-yl-2,2-dimethyl butyrate] | high tendency of aggregation | 
CCC(C)(C)C(=O)OC1=C(c2ccc(Cl)cc2Cl)C(=O)OC12CCCCC2 [Example 2, 3-(2,4-dichlorophenyl)-2-oxo-1-oxaspiro[4.5]dec-3-en-4-yl-2,2-dimethyl butyrate] |  | significant improvement in its stability without aggregation
